“And” between values parts separate entries of the source, which are not always exact repeats. Equal values may be shown once. The source made the active and inactive calls.
How the values were obtained:
[1] = biological target: Luciferin 4-monooxygenase (Photinus pyralis, UniProt P08659); assay: inhibition of purified Photinus pyralis luciferase – biochemical, luminescence, dose response (AID 1891)
[2] = Luminescence Cell-Based Dose Confirmation HTS to Identify Inhibitors of Platelet Dense Granule Release. [Related pubchem assays: 1663 (Primary HTS), 1678 (Summary of Project)]; type: functional
[3] = Fluorescence Cell-Based Dose Response to Identify Inhibitors of Thrombin Receptor-Activating Peptide SFLLRN-Mediated P-Selectin Induction on Platelets. [Related pubchem assays: 1663 (Primary HTS), 1889 (retest at dose ), 1891 (counterscreen), 1678 (Project Summary)]; type: functional
[4] = biological target: T1, Bcl-2-like protein 10 (Homo sapiens, UniProt Q9HD36); assay: Bcl-B/TR3 peptide binding disruption – biochemical, fluorescence polarization, FITC-TR3 peptide, selectivity assay for Bfl-1 inhibitor project, primary screen (AID 748);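 also: fluorescence polarization from a fluorescein-labelled TR3 peptide binding purified Bcl-B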
T1 sequence (Q9HD36 whole entry): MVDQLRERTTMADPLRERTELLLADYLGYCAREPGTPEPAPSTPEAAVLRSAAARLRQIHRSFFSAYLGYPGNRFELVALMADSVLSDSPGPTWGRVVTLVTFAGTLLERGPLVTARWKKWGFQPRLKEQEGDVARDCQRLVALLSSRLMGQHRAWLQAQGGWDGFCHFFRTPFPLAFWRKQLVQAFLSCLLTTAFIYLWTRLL

[5] = biological target: T2, SUMO-activating enzyme (Homo sapiens, UniProt Q9UBT2); assay: blockers of UBC9-mediated SUMO conjugation – biochemical, AlphaScreen, SUMOylation inhibitor project, confirmation (AID 2018); type: functional
[6] = biological target: T2, SUMO-activating enzyme; assay: blockers of SAE1/SAE2–UBC9 SUMO transfer – biochemical, HTRF, uHTS, primary screen (AID 2006); type: protein-complex assay
[7] = biological target: Induced myeloid leukemia cell differentiation protein Mcl-1 (Homo sapiens, UniProt Q07820); assay: blockers of MCL1 binding to BIM peptide – biochemical, fluorescence polarization, BIM-BH3 peptide, 1536-well, dose response (AID 2217)
[8] = biological target: T3, Estrogen receptor beta (Homo sapiens, UniProt Q92731);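 also: recombinant ER-beta bound to coactivator SRC1 peptide in presence of estradiol agonist; inhibitors block coactivator peptide binding and lower the FRET signal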
[9] = biological target: T3, Estrogen receptor beta; assay: blockers of SRC-3 recruitment to ERβ – biochemical, ELISA, streptavidin-HRP readout, orthogonal assay, confirmation (AID 1060)
[10] = biological target: Bcl-2-like protein 1 (Homo sapiens, UniProt Q07817); assay: blockers of BCLXL peptide binding – biochemical, fluorescence polarization, 1536-well, selectivity assay for MCL1 inhibitor project, dose response (AID 2218)
[11] = biological target: NADPH oxidase 1 (Homo sapiens, UniProt Q9Y5S8); assay: Late-stage luminescence-based cell-based dose response assay to identify inhibitors of NADPH oxidase 1 (NOX1): Purchased analogs 2.; type: functional
[12] = viability of uninfected HEp-2 cells – cell-based, HTS, cytotoxicity control for RSV inhibitor project, dose response (AID 2410); type: functional; settings: human respiratory syncytial virus
[13] = HPDE-C7 pancreatic duct cell viability loss – fluorescence, HTS (AID 430); type: functional, cell-based; settings: Homo sapiens
[14] = viability loss of HPDE-C7K cells – cell-based, fluorescence, HTS, primary screen (AID 431); type: functional; settings: Homo sapiens
[15] = biological target: Sphingosine 1-phosphate receptor 2 (Homo sapiens, UniProt O95136); assay: Dose Response Cell Based Assay for Agonists of the S1P2 Receptor of Purchased Analogues. [Related pubchem assays: 729, 843, 854, 736 ]; type: functional
[16] = system: Vero; assay: inhibition of WNV-induced cytopathic effect – cell-based, CPE readout (AID 1621); type: functional; settings: Chlorocebus sabaeus
[17] = system: Vero; assay: cells; type: functional; settings: Chlorocebus sabaeus
[18] = biological target: T4, Tyrosine-protein phosphatase non-receptor type 7 (Homo sapiens, UniProt P35236); assay: HePTP tyrosine phosphatase activity blockers – biochemical, absorbance, leukemia target, primary screen (AID 521); type: functional
T4 sequence (P35236 whole entry): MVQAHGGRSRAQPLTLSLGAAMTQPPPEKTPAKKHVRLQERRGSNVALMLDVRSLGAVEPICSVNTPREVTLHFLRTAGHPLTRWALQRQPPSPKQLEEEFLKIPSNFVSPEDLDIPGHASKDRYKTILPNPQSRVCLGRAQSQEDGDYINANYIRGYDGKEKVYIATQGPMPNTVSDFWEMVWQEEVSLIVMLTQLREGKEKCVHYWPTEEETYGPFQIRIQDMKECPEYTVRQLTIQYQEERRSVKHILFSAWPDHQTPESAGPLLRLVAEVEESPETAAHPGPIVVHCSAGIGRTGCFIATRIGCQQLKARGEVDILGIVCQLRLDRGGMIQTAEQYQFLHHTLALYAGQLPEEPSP

[19] = biological target: T5, Bcl-2-related protein A1 (Mus musculus, UniProt Q07440); assay: displacement of Bid BH3 peptide from Bfl-1 – biochemical, fluorescence polarization, FITC-Bid, mouse, primary screen (AID 432)
T5 sequence (Q07440 whole entry): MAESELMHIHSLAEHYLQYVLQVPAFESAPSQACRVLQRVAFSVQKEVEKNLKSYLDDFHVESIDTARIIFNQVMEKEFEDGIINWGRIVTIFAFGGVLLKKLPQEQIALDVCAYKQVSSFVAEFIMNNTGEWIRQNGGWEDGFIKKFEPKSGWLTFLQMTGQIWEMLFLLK

[20] = biological target: Glyceraldehyde-3-phosphate dehydrogenase (Homo sapiens, UniProt P04406)
[21] = biological target: T5, Bcl-2-related protein A1; assay: small-molecule antagonists of Bfl-1/BH3 interaction – biochemical, TR-FRET, mouse Bfl-1, confirmation (AID 621);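 also: TR-FRET binding of GST-Bfl-1 to FITC-labelled Bid peptide via terbium antibody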
[22] = biological target: T5, Bcl-2-related protein A1; assay: Bfl-1 binding inhibitors, SAR follow-up, biochemical, fluorescence polarization (AID 1070)
[23] = biological target: Diphosphomevalonate decarboxylase (Streptococcus pneumoniae serotype 2 (strain D39 / NCTC 7466), UniProt Q9FD53); assay: diphosphomevalonate decarboxylase inhibitor confirmation – biochemical, cuvette format, coupled NADH fluorescence (AID 1028); type: functional
Diphosphomevalonate decarboxylase, sequence (Q9FD53 whole entry): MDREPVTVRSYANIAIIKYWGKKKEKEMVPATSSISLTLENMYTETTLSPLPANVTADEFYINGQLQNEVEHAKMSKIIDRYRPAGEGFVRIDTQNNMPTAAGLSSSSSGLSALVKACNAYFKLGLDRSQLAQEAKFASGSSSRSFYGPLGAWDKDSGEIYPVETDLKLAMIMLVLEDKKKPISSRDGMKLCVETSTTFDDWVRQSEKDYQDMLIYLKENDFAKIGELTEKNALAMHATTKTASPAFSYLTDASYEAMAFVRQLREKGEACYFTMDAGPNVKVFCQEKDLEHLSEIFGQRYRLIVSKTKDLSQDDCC

T3 sequence (Q92731 whole entry): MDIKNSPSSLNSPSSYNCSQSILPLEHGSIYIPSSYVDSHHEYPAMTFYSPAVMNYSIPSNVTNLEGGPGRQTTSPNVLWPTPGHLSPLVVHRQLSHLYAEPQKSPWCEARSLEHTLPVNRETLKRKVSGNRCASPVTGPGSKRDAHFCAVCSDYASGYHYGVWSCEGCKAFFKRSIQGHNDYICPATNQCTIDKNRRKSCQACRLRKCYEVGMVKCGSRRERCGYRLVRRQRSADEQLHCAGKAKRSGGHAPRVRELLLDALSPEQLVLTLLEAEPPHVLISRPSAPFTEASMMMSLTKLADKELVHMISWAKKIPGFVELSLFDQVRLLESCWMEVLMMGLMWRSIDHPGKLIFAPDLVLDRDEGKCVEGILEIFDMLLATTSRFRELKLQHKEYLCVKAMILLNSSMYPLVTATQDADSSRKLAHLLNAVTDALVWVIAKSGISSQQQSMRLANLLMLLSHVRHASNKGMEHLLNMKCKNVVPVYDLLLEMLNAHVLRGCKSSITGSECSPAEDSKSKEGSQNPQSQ
T2 sequence (Q9UBE0 whole entry): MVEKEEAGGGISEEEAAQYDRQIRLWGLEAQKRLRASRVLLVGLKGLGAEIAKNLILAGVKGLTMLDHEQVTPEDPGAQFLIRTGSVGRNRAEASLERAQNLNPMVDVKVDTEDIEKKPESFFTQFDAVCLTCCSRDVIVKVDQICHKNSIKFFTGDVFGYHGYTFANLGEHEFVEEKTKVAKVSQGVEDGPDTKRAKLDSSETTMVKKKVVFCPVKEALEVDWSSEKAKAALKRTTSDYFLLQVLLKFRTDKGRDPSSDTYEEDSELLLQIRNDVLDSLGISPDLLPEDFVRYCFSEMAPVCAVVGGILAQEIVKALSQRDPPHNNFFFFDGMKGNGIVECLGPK
T2 sequence (Q9UBT2 whole entry): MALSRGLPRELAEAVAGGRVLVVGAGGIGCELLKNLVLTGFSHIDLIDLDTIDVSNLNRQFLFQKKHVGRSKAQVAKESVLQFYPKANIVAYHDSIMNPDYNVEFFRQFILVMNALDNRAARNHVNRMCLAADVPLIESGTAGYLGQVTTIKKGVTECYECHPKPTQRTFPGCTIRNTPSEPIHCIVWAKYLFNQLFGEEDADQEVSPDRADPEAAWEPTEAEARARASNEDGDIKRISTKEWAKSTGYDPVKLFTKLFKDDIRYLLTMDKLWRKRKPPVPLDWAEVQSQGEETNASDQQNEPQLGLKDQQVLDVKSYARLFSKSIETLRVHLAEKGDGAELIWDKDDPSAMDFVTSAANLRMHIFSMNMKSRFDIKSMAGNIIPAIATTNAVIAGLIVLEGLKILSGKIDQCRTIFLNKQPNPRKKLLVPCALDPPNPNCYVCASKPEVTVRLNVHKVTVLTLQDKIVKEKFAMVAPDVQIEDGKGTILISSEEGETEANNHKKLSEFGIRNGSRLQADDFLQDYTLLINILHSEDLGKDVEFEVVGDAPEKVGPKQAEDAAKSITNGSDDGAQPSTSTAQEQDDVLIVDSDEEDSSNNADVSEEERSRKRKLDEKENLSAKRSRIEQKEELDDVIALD
Bcl-2-like protein 1, sequence (Q07817 whole entry): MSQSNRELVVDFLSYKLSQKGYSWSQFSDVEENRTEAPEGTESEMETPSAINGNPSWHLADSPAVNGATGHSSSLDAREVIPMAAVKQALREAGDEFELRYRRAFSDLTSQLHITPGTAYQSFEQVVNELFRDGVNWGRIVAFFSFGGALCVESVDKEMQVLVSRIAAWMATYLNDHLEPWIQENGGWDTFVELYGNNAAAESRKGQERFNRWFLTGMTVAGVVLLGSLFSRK
Luciferin 4-monooxygenase, sequence (P08659 whole entry): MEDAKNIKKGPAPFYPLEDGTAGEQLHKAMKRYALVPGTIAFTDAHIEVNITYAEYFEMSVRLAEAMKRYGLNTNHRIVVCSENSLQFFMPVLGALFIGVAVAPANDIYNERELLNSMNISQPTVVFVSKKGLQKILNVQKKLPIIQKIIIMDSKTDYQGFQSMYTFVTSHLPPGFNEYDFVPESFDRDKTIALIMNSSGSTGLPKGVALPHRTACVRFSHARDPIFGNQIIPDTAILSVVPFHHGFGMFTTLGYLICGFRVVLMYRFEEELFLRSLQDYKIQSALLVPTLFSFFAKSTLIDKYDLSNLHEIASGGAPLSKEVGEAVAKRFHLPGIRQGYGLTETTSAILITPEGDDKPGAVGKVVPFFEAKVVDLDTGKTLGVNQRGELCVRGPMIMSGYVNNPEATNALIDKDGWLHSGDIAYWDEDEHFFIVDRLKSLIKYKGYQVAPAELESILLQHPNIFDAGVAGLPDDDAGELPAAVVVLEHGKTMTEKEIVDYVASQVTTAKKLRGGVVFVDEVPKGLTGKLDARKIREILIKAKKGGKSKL
Glyceraldehyde-3-phosphate dehydrogenase, sequence (P04406 whole entry): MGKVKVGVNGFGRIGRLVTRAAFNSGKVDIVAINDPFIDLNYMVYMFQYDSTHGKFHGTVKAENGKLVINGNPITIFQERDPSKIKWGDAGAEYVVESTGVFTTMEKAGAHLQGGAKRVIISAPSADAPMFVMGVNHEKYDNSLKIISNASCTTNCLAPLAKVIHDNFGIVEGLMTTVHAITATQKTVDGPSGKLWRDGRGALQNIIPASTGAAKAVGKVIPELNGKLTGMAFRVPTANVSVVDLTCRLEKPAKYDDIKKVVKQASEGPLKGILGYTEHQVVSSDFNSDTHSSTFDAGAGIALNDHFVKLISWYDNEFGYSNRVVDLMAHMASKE
NADPH oxidase 1, sequence (Q9Y5S8 whole entry): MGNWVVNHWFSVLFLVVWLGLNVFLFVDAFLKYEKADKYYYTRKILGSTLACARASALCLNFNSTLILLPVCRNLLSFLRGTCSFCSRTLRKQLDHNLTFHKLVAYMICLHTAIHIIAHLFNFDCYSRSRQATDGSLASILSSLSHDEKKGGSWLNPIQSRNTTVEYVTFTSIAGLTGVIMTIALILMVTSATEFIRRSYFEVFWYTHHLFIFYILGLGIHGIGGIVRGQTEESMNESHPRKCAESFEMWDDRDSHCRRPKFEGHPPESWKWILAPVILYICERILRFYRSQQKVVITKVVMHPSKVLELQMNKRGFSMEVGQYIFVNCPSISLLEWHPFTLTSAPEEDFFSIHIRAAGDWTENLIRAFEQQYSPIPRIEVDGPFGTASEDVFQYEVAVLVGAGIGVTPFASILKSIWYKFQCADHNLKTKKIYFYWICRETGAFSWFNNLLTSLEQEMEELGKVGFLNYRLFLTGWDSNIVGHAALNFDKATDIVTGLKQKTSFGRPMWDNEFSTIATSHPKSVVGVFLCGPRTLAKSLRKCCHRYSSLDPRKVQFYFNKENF
Induced myeloid leukemia cell differentiation protein Mcl-1, sequence (Q07820 whole entry): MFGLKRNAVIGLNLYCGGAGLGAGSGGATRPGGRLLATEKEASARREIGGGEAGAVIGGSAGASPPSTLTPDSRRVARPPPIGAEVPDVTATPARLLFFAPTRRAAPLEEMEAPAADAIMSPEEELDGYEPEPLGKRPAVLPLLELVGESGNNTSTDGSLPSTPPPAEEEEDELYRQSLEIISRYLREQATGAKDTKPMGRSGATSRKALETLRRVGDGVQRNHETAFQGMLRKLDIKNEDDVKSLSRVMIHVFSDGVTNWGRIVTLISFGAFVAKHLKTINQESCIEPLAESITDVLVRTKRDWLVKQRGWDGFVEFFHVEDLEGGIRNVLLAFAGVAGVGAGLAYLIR
Sphingosine 1-phosphate receptor 2, sequence (O95136 whole entry): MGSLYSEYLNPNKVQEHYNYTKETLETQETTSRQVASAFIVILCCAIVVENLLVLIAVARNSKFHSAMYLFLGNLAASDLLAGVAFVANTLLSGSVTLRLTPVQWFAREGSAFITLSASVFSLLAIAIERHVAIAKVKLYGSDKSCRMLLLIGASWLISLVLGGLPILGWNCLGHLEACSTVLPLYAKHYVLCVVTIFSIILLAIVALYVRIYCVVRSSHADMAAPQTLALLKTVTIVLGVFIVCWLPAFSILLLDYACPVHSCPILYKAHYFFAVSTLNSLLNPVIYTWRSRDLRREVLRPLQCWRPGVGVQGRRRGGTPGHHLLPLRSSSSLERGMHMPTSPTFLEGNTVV

In the case of `COc1cc2c(cc1OC)-c1cc(Nc3ccc(F)cc3)nc(=O)n1CC2`, the EC50 [1] is reported as > 112 µM (not active), the EC50 [2] is reported as 1.82 µM (active) and the EC50 [3] is reported as < 0.3 µM (active).

With `O=c1nc2s/c(=C\c3ccco3)c(=O)n2nc1Cc1ccc(F)cc1` the IC50 [4] was 14.7 µM (active), the IC50 [5] was 7.36 µM (active) and the IC50 [6] was 38.3 µM (active). For the same compound, the IC50 [7] was > 109 µM (not active), the IC50 [8] was 2.35 µM (active) and the IC50 [9] was 0.987 µM (not active). For the same compound, the IC50 [10] was > 109 µM (not active).

With `S=C(NNC(=S)Nc1ccc(Cl)cc1)Nc1ccccc1` the IC50 [11] was 0.725 µM (active).

With `Cc1oc(C)c2c(=O)ccc3c(c12)OC(N)=C(C#N)C3c1ccc(F)cc1` (stereo not drawn) the CC50 [12] was 21.6 µM (active), the EC50 [13] was 10.3 µM (active) and the EC50 [14] was 9.61 µM (active).

With `Cc1cc(C(=O)CN2C(=O)NC3(CCc4ccccc43)C2=O)c(C)n1Cc1ccccc1` (stereo not drawn) the EC50 [15] was > 30 µM (not active).

For `CCCN1CCN(CCCNC(=O)c2cc3c(s2)-c2ccccc2OC3)CC1`, the IC50 [16] was 20 µM (active) and the CC50 [17] was > 25 µM (active).

In the case of `COc1ccc2nc(O)c(-c3noc(-c4ccc(F)cc4)n3)cc2c1`, the IC50 [18] is reported as 2.18 µM (active), the IC50 [19] is reported as 6.15 µM (active) and the IC50 [20] is reported as > 100 µM (not active). For the same compound, the IC50 [21] was 4.45 µM (active) and 3.6 µM (active) and the IC50 [22] was 3.85 µM (active).

For `CCCN(CCC)C(=O)c1cccc(-n2sc3ccccc3c2=O)c1`, the IC50 [23] was 18.1 µM (active).
